How the values were obtained:
[1] = molecular target: T1, human RORgt nuclear receptor (RORgT ligand binding domain protein) (Homo sapiens, UniProt P51449); assay: ROR-gamma binding assay (Scintillation Proximity Assay, displacement of [3H]-25-hydroxycholesterol); conditions: EC50, SPA, 15 nM [3H]-25-Hydroxycholesterol, RORgT LBD 12 nM
T1 construct: purchased Proteros Biostructures GmbH
T1 sequence (P51449 with tags, fused parts or gaps): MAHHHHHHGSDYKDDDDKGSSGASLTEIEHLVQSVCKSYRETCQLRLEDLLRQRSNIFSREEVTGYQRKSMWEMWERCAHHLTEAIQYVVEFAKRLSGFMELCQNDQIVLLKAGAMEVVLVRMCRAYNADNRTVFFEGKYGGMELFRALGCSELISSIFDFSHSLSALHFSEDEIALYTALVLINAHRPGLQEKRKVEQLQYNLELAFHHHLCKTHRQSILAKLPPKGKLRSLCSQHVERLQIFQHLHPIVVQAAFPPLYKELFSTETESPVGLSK
In short: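 SPA competition of compound against 15 nM [3H]-25-hydroxycholesterol for His/FLAG-tagged human RORγt LBD (12 nM) on His-tag PVT beads, in 50 mM HEPES pH 7.4, 150 mM NaCl, 5 mM MgCl2, 0.1% BSA, 0.5% DMSO. 30 min preincubation, then ≥4 h at room temperature in darkness; EC50 by four-parameter fit.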

[2] = tested on: IL-17A in Human peripheral mononuclear cells; assay: Human PBMC IL-17A assay; type: cell-based; conditions: 72 h, EC50, antiCD3/antiCD28-coated beads, 3 days, alpha-LISA
In short: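 Cryopreserved human PBMC (130,000/well) stimulated with anti-CD3/anti-CD28-coated beads (1 cell per bead) in RPMI-1640 with 10% bovine calf serum, compounds at 0.1% DMSO, for 3 days. Supernatant IL-17A measured by AlphaLISA, viability by PrestoBlue; EC50 from 4-parameter non-linear regression.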

[3] = tested on: IL-17A levels in human peripheral blood; assay: tissue or blood; type: cell-based; conditions: 72 h, read-out: Human Whole blood IL-17A (nM)

SMILES	EC50 [1] [nM]	EC50 [2] [nM]	EC50 [3] [nM]
Cc1cc(CN2CCN(C(=O)OCC(F)(F)F)[C@@H](C)C2)c(C)c(Nc2nnc([C@H]3C[C@@H](O)C3)o2)c1 [Example 70, 2,2,2-trifluoroethyl (2S)-4-[[3-[[5-(3-hydroxycyclobutyl)-1,3,4-oxadiazol-2-yl]amino]-2,5-dimethyl-phenyl]methyl]-2-methyl-piperazine-1-carboxylate]	52.2	78.5	227
CCOC(=O)N1CCN(Cc2cc(C)cc(Nc3nnc([C@@H](C)O)o3)c2C)C[C@@H]1C [Example 71, ethyl (2S)-4-[[3-[[5-[(1R)-1-hydroxyethyl]-1,3,4-oxadiazol-2-yl]amino]-2,5-dimethyl-phenyl]methyl]-2-methyl-piperazine-1-carboxylate]	62	223	307
Cc1cc(CN2CCN(C(=O)OC(C)C)[C@@H](C)C2)c(C)c(Nc2nnc([C@@H](O)CO)o2)c1 [Example 72, isopropyl (2S)-4-[[3-[[5-[(1S)-1,2-dihydroxyethyl]-1,3,4-oxadiazol-2-yl]amino]-2,5-dimethyl-phenyl]methyl]-2-methyl-piperazine-1-carboxylate]	81.6	262	258
Cc1c(CN2CCN(C(=O)OC(C)(C)C)[C@@H](C)C2)cc(Cl)cc1Nc1ncc(CO)o1 [Example 74, tert-butyl (2S)-4-[[5-chloro-3-[[5-(hydroxymethyl)oxazol-2-yl]amino]-2-methyl-phenyl]methyl]-2-methyl-piperazine-1-carboxylate]	71.8	408	946
Cc1cc(CN2CCN(C(=O)O[C@H](C)C(F)(F)F)[C@@H](C)C2)c(C)c(Nc2nnc([C@@H](O)CO)o2)c1 [Example 75, [(1R)-2,2,2-trifluoro-1-methyl-ethyl] (2S)-4-[[3-[[5-[(1S)-1,2-dihydroxyethyl]-1,3,4-oxadiazol-2-yl]amino]-2,5-dimethyl-phenyl]methyl]-2-methyl-piperazine-1-carboxylate]	32.4	52.9	158
Cc1cc(CN2CCN(C(=O)OC(C)C)[C@@H](C)C2)c(C)c(Nc2nnc([C@@H]3CCOC3)o2)c1 [Example 76, isopropyl (2S)-4-[[2,5-dimethyl-3-[[5-[(3R)-tetrahydrofuran-3-yl]-1,3,4-oxadiazol-2-yl]amino]phenyl]methyl]-2-methyl-piperazine-1-carboxylate]	25.6	60.5	112
Cc1cc(CN2CCN(C(=O)OC(C)C)[C@@H](C)C2)c(C)c(Nc2nnc([C@H]3NCC[C@H]3O)o2)c1 [Example 77, isopropyl (2S)-4-[[3-[[5-[(2S,3R)-3-hydroxypyrrolidin-2-yl]-1,3,4-oxadiazol-2-yl]amino]-2,5-dimethyl-phenyl]methyl]-2-methyl-piperazine-1-carboxylate]	61.2	180	368
Cc1cc(CN2CCN(C(=O)C3CCCC3)[C@@H](C)C2)c(C)c(Nc2nnc([C@H]3NCC[C@H]3O)o2)c1 [Example 78, cyclopentyl-[(2S)-4-[[3-[[5-[(2S,3R)-3-hydroxypyrrolidin-2-yl]-1,3,4-oxadiazol-2-yl]amino]-2,5-dimethyl-phenyl]methyl]-2-methyl-piperazin-1-yl]methanone]	72.5	95.9	157
Cc1cc(CN2CCN(C(=O)C3CCC(F)(F)C3)[C@@H](C)C2)c(C)c(Nc2nnc([C@H]3NCC[C@H]3O)o2)c1 (stereo partly drawn) [Example 79, (3,3-difluorocyclopentyl)-[(2S)-4-[[3-[[5-[(2S,3R)-3-hydroxypyrrolidin-2-yl]-1,3,4-oxadiazol-2-yl]amino]-2,5-dimethyl-phenyl]methyl]-2-methyl-piperazin-1-yl]methanone]	274	1220	3530
Cc1cc(CN2CCN(C(=O)OC(C)C)[C@@H](C)C2)c(C)c(Nc2nnc([C@@H]3CNC(=O)C3)o2)c1 [Example 83, isopropyl (2S)-4-[[2,5-dimethyl-3-[[5-[(3S)-5-oxopyrrolidin-3-yl]-1,3,4-oxadiazol-2-yl]amino]phenyl]methyl]-2-methyl-piperazine-1-carboxylate]	67	123	240

From US10934282B2, “Heteroaromatic modulators of the retinoid-related orphan receptor gamma” (LEO PHARMA A/S, priority 2016, dated 2021)
